{"source": "patent US12570661B2", "about": "“Isoform-specific aldehyde dehydrogenase inhibitors” (The Board of Trustees of the Leland Stanford Junior …, priority 2020, dated 2026)", "key": {"[1]": {"tested_on": "5-FU-resistant SW480 cells", "test": "Spheroid growth of 5-FU-resistant versus parental SW480 cells", "format": "cell-based, human", "conditions": "spheroid culture", "description": "The parental SW480 cells were cultured in RPMI-1640 medium containing 10% FBS, 100 U/mL penicillin, 100 μg/mL streptomycin, and 1 μM 5-FU for two weeks. The 5-FU concentration in the culture medium was then increased to 5 μM and after another two weeks raised further to 10 μM. The resulting 5-FU-resistant SW480 cells were maintained in culture medium with 10 μM 5-FU.\nTo prepare Matrigel-coated culture plates, 96-well and 24-well plates were placed on ice and coated with 25 μL or 300 μL, respectively, of Matrigel matrix (Corning, LDEV-free) that had been thawed overnight at 4° C. The plates were then placed in a 37° C. incubator for 30 min to allow the Matrigel to solidify. […]\nSW480 or HCT116 cells were seeded into regular or Matrigel-coated 96-well plates at a density of 1000 cells/well. […] Each culture was maintained for 7 days, and then cell viabilities were measured using a CellTiter-Glo 3D Cell Viability Assay kit (Promega). […] A 150-μL aliquot from each well was then transferred into a white opaque 96-well assay plate (flat-bottom and non-treated; Corning Costar) and luminescence intensities were measured with a Veritas microplate luminometer (Turner BioSystems)."}, "[2]": {"molecular_target": "T1, ALDH2 (Homo sapiens, UniProt P05091)", "T1 construct": "made in house", "T1 sequence (P05091 18-517)": "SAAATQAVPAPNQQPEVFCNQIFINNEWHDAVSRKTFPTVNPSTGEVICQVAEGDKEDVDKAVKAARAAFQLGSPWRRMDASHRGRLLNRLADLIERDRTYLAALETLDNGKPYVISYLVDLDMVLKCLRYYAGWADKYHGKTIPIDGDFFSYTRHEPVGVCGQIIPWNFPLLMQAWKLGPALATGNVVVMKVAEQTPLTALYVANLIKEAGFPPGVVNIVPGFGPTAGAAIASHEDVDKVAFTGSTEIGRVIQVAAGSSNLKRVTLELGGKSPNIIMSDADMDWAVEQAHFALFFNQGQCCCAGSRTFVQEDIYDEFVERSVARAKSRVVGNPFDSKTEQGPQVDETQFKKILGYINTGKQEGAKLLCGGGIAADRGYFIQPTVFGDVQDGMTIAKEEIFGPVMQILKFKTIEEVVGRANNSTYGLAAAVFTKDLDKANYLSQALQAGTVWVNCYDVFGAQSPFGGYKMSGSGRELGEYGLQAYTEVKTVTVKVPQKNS", "test": "ALDH2 enzyme kinetics assay", "format": "biochemical", "conditions": "50-μM compound concentration", "description": "(§1) Cloning, expression, and purification of human recombinant ALDH1A1, ALDH1A3, ALDH2, ALDH3A1, ALDH3A2, ALDH4A1, ALDH5A1 and ALDH7A1 isozymes were conducted as described previously (Chen, C. H. et al. (2015) Proc. Natl. Acad. Sci. U.S.A. 112, 3074-3079). Human ALDH1A2 (Origene, SC109995) and ALDH1B1 (T. Hurley, Indiana University) plasmids were cloned into the pET-15b expression vector (Novagen, 69661-3) containing an N-terminal hexahistidine tag. The mitochondria-targeting sequence of ALDH1B1 was also removed. […] The protein concentration for each fraction was measured (500 μL elution volume was collected as one fraction and was immediately mixed with 500 μL glycerol. The protein concentration for each fraction was measured (600 nm Protein Assay Reagent; Thermo Fisher Scientific), and protein-containing fractions were diluted with an equal volume of glycerol and stored at −80° C. Samples from each step were also collected for SDS-PAGE gel analysis. For ALDH1B1 protein co-expression with chaperones, pET-15b-ALDH1B1 and GroEL/GroES (Addgene, plasmid pBB541) plasmids were co-transformed into competent BL21 E. coli cells, which were subsequently grown in 1 L of Luria-Bertani medium containing 100 μg/mL ampicillin and 50 μg/mL spectinomycin at 37° C. […]"}, "[3]": {"molecular_target": "T2, ALDH1A3 (Homo sapiens, UniProt P47895)", "T2 construct": "made in house", "T2 sequence (P47895 1-512)": "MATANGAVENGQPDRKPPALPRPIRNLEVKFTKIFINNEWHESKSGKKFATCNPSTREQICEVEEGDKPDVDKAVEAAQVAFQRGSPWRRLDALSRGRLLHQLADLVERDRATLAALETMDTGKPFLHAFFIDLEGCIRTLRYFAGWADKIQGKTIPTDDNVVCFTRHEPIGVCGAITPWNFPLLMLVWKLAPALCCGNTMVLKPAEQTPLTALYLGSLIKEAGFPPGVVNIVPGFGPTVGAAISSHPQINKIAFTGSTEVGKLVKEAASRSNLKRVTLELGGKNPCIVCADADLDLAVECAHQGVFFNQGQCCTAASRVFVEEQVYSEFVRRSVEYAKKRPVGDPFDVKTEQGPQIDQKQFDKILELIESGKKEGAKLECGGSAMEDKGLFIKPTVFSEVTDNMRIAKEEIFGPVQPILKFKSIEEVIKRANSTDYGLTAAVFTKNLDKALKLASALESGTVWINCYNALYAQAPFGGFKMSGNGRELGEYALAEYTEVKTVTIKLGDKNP", "test": "ALDH1A3 enzyme kinetics assay", "format": "biochemical", "conditions": "enzyme kinetics assays, 1-μM dose", "description": "as §1"}, "[4]": {"molecular_target": "T3, ALDH1B1 (Homo sapiens, UniProt P30837)", "T3 sequence (P30837 18-517)": "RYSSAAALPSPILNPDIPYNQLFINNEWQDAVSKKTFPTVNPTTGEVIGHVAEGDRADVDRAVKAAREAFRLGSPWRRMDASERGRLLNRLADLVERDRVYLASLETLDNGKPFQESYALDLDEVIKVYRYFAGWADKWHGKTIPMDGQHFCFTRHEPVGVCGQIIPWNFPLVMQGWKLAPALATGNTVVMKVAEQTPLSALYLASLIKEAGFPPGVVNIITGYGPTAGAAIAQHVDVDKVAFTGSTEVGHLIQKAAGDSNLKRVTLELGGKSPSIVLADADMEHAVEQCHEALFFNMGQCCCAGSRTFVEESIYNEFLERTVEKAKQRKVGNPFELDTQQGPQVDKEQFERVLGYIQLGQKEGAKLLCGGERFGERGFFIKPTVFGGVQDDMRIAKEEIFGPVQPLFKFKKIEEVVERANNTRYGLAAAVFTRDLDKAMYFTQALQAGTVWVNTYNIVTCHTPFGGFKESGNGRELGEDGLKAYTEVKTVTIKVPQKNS", "test": "ALDH1B1 enzyme kinetics assay (NADH fluorescence, acetaldehyde substrate)", "format": "biochemical", "set-up": "made in house; host or cells: E. coli BL21 (optionally co-expressed with GroEL/GroES)", "conditions": "enzyme kinetics assays against ALDH isoforms", "description": "Cloning, expression, and purification of human recombinant ALDH1A1, ALDH1A3, ALDH2, ALDH3A1, ALDH3A2, ALDH4A1, ALDH5A1 and ALDH7A1 isozymes were conducted as described previously (Chen, C. H. et al. (2015) Proc. Natl. Acad. Sci. U.S.A. 112, 3074-3079). Human ALDH1A2 (Origene, SC109995) and ALDH1B1 (T. Hurley, Indiana University) plasmids were cloned into the pET-15b expression vector (Novagen, 69661-3) containing an N-terminal hexahistidine tag. The mitochondria-targeting sequence of ALDH1B1 was also removed. For protein expression without chaperones, the pET-15b based plasmids were transformed into competent BL21 E. coli cells, which were subsequently grown in 1 L of Luria-Bertani medium containing 100 μg/mL ampicillin at 37° C. Once the OD600 value reached 0.6, the culture was transferred to 16° C. and 0.5 mM isopropyl β-d-1-thiogalactopyranoside was introduced to induce protein expression overnight. The bacteria were then pelleted by centrifugation (3000×g, 4° C. for 30 rain) and harvested. 40 mL BugBuster Master Mix buffer (MilliporeSigrna) containing a protease inhibitor cocktail (cOmplete; Roche) was added, and the cells were lysed by mechanically rolling the suspension at room temperature for 25 min. The lysate was centrifuged (16000×g, 4° C. for 30 min), and the soluble fraction was collected and mixed with 2 mL of Ni-NTA Superflow resin (Qiagen). After the mixture was avowed to rock at 4° C. for 1 h, it was used to create a 10-mL gravity column, which was sequentially treated with 40 mL of wash buffer 1 (20 mM sodium phosphate, 500 mM NaCl, 1 mM DTT, 20 mM imidazole, 5% glycerol, pH 7.4) and 25 mL of wash buffer 2 (20 mM sodium phosphate, 500 mM NaCl, 1 mM DTT, 40 mM imidazole, 5% glycerol, pH 7.4). The hexahistidine-tagged protein was then recovered by treated the column with 5 mL elution buffer (20 mM sodium phosphate, 500 mM NaCl, 1 mM DTT, 400 mM imidazole, 5% glycerol, pH 7.4) and collecting 500-μL fractions. The protein concentration for each fraction was measured (500 μL elution volume was collected as one fraction and was immediately mixed with 500 μL glycerol. The protein concentration for each fraction was measured (600 nm Protein Assay Reagent; Thermo Fisher Scientific), and protein-containing fractions were diluted with an equal volume of glycerol and stored at −80° C. Samples from each step were also collected for SDS-PAGE gel analysis. For ALDH1B1 protein co-expression with chaperones, pET-15b-ALDH1B1 and GroEL/GroES (Addgene, plasmid pBB541) plasmids were co-transformed into competent BL21 E. coli cells, which were subsequently grown in 1 L of Luria-Bertani medium containing 100 μg/mL ampicillin and 50 μg/mL spectinomycin at 37° C. The hexahistidine-tagged ALDH1B1 protein was then expressed and purified as described above.\nTo evaluate compound activities against ALDH isoforms, reaction mixtures consisting of enzyme assay buffer (100 mM sodium phosphate, 1 mM MgCl2, pH 8.0) and 0.1% DMSO, 1 mM β-mercaptoethanol, 1 mM NAD^+, and the bacterially expressed protein were prepared in white opaque 96-well assay plates (100 μL/well, flat-bottom and non-treated; Corning Costar). 5 μg/mL ALDH enzyme was used for single-dose (1, 10, 50 μM) compound test, and 1 μg/mL ALDH enzyme was used for IC50s determination. Acetaldehyde was then added to each well to achieve an initial substrate concentration of 1 mM, and the resulting enzymatic activity was measured based on NADH fluorescence. The fluorescence signal was read over the course of 10 min on a SpectraMax M2e microplate reader (340-nm excitation and 460-nm emission; Molecular Devices) operated by SoftMax Pro software. Compound activities were normalized to a DMSO control, and dose-response inhibition curves were fitted with four-parameter non-linear regression using Prism software. […]"}, "[5]": {"tested_on": "SW480 cells (adherent)", "test": "Cell viability assay, adherent SW480 cultures", "format": "cell-based, human", "conditions": "Homo sapiens, SW480, 168 h; adherent culture, 7 days", "description": "SW480 or HCT116 cells were seeded into regular or Matrigel-coated 96-well plates at a density of 1000 cells/well. The cells were cultured in the corresponding adherent or spheroid culture medium (200 μL/well) containing the designated compounds or an equivalent amount of DMSO vehicle. Each culture was maintained for 7 days, and then cell viabilities were measured using a CellTiter-Glo 3D Cell Viability Assay kit (Promega). Briefly, 100 μL of the culture medium was removed from each well and replaced with 100 μL 3D Cell Assay reagent. The cells in each well were next homogenized by vigorous pipetting, and the plate was incubated for 10 min at room temperature to stabilize the chemiluminescent signal. A 150-μL aliquot from each well was then transferred into a white opaque 96-well assay plate (flat-bottom and non-treated; Corning Costar) and luminescence intensities were measured with a Veritas microplate luminometer (Turner BioSystems)."}, "[6]": {"tested_on": "NIH-3T3 cells", "test": "Seahorse oxygen-consumption-rate assay (NIH3T3)", "format": "cell-based, murine", "conditions": "Mus musculus"}}, "note": "pIC50: −log10 of the molar value."}
{"smiles": "O=c1[nH]cc(F)c(=O)[nH]1", "note": "[Compound 5-FU, 5-fluorouracil]", "values": [{"measurement": "loss of sensitivity of 5-FU-resistant SW480 line versus parental line", "setting": "[1]", "value": 50, "unit": "fold"}]}
{"smiles": "C#CCOc1ccc(-n2cc(-c3ccc(N=[N+]=[N-])cc3)[n+]3c2CCCCC3)cc1", "note": "[Imidazolium 3]", "values": [{"measurement": "inhibition of ALDH2 activity", "setting": "[2]", "value": "only partially suppressed"}]}
{"smiles": "COc1ccccc1-n1cc(-c2ccc(-c3ccc([N+](=O)[O-])cc3)cc2)[n+]2c1CCCCC2.[Br-]", "note": "[Imidazolium 10]", "values": [{"measurement": "ALDH1A3 inhibition / isoform selectivity (in words)", "setting": "[3]", "value": "inhibitor of both ALDH1B1 and ALDH1A3"}, {"measurement": "ALDH1B1 inhibition / isoform selectivity (in words)", "setting": "[4]", "value": "inhibitor of both ALDH1B1 and ALDH1A3"}]}
{"smiles": "CCOc1ccc(-n2cc(-c3ccc(-c4ccc(C(=O)OC)cc4)cc3)[n+]3c2CCCCC3)cc1", "note": "[Imidazolium 46]", "values": [{"measurement": "ALDH1A3 inhibition / isoform selectivity (in words)", "setting": "[3]", "value": "ALDH1A3-specific inhibitor"}]}
{"smiles": "c1ccc(-c2ccc(-c3cn(C4CCCCC4)c4[n+]3CCCCC4)cc2)cc1", "note": "[Imidazolium 53]", "values": [{"measurement": "GI50", "setting": "[5]", "value": 820, "unit": "nM"}, {"measurement": "pIC50", "setting": "[6]", "value": 6.77}]}
